From patent publication US8735414B2 (priority 2009, dated 2014)

System: bicistronic HCV replicon (replicon RNA, GenBank Accession No. AJ242654)
Assay: HCV Replicon Assay
Type: cell-based
Settings: Hepatitis C virus, 72 h, read-out: Replicon IC50

SMILES	IC50 [µM]
CC(C)(NS(=O)(=O)c1ccc(-c2c(C#N)c3ccc(C4CC4)cc3n2-c2ccccn2)nc1)C(F)(F)F [compound 584, 6-[3-cyano-6-cyclopropyl-1-(pyridin-2-yl)-1H-indol-2-yl]-N-(1,1,1-trifluoro-2-methylpropan-2-yl)pyridine-3-sulfonamide]	0.5 to 2
C[C@H](NS(=O)(=O)c1ccc(-c2c(C#N)c3ccc(Cl)cc3n2C2CCCC2)nc1)C(F)(F)F [compound 364, 6-(6-chloro-3-cyano-1-cyclopentyl-1H-indol-2-yl)-N-[(2S)-1,1,1-trifluoropropan-2-yl]pyridine-3-sulfonamide]	< 0.5
C[C@H](NS(=O)(=O)c1ccc(-c2c(C#N)c3cc(Cl)c(OC(F)F)cc3n2C2CCC2)nc1)C(F)(F)F [compound 636, 6-[5-chloro-3-cyano-1-cyclobutyl-6-(difluoromethoxy)-1H-indol-2-yl]-N-[(2S)-1,1,1-trifluoropropan-2-yl]pyridine-3-sulfonamide]	< 0.5
CC(C)(C)S(=O)(=O)Nc1ccc(-c2c(C(=O)O)c3cc(F)c(OC(F)F)cc3n2C2CCCCC2)cn1 [compound 1064, 2-{6-[(tert-butylsulfonyl)amino]pyridin-3-yl}-1-cyclohexyl-6-(difluoromethoxy)-5-fluoro-1H-indole-3-carboxylic acid]	< 0.5
Cc1cc2c(cc1F)cc(-c1ccc(S(=O)(=O)N[C@@H](C)C(F)(F)F)cn1)n2-c1ccsc1 [compound 987, 6-[5-fluoro-6-methyl-1-(thiophen-3-yl)-1H-indol-2-yl]-N-[(2S)-1,1,1-trifluoropropan-2-yl]pyridine-3-sulfonamide]	< 0.5
C[C@H](NS(=O)(=O)c1ccc(-c2c(C#N)c3cc(F)c(C4(C)OCCO4)cc3n2-c2ncccn2)nc1)C(F)(F)F [compound 927, 6-[3-cyano-5-fluoro-6-(2-methyl-1,3-dioxolan-2-yl)-1-(pyrimidin-2-yl)-1H-indol-2-yl]-N-[(2S)-1,1,1-trifluoropropan-2-yl]pyridine-3-sulfonamide]	< 0.5
COC(=O)c1c(-c2ccc(S(=O)(=O)NC(C)(C)C(F)(F)F)cn2)n(C2CCCC2)c2cc(C)c(F)cc12 [compound 754, methyl 1-cyclopentyl-5-fluoro-6-methyl-2-{5-[(1,1,1-trifluoro-2-methylpropan-2-yl)sulfamoyl]pyridin-2-yl}-1H-indole-3-carboxylate]	< 0.5
Cc1cc2c(cc1O)c(C#N)c(-c1ccc(S(=O)(=O)N[C@H](C)C(F)(F)F)cn1)n2C1CCCC1 [compound 693, 6-(3-cyano-1-cyclopentyl-5-hydroxy-6-methyl-1H-indol-2-yl)-N-[(2R)-1,1,1-trifluoropropan-2-yl]pyridine-3-sulfonamide]	< 0.5
CCc1cc2c(cc1F)c(C(N)=O)c(-c1ccc(S(=O)(=O)N[C@@H](C)C(F)(F)F)cn1)n2-c1ccc(Cl)cn1 [compound 1043, 1-(5-chloropyridin-2-yl)-6-ethyl-5-fluoro-2-(5-{[(2S)-1,1,1-trifluoropropan-2-yl]sulfamoyl}pyridin-2-yl)-1H-indole-3-carboxamide]	< 0.5
Cc1ccnc(-n2c(-c3ccc(S(=O)(=O)N[C@@H](C)C(F)(F)F)cn3)c(C#N)c3cc(F)c(C)cc32)n1 [compound 873, 6-[3-cyano-5-fluoro-6-methyl-1-(4-methylpyrimidin-2-yl)-1H-indol-2-yl]-N-[(2S)-1,1,1-trifluoropropan-2-yl]pyridine-3-sulfonamide]	< 0.5
CCc1cc2c(cc1F)c(C#N)c(-c1ccc(S(=O)(=O)NC(C)(C)C(F)(F)F)cn1)n2-c1ncccn1 [compound 859, 6-[3-cyano-6-ethyl-5-fluoro-1-(pyrimidin-2-yl)-1H-indol-2-yl]-N-(1,1,1-trifluoro-2-methylpropan-2-yl)pyridine-3-sulfonamide]	0.5 to 2
Cc1c(F)c(OC(F)F)cc2c1c(C#N)c(-c1ccc(S(=O)(=O)N[C@@H](C)C(F)(F)F)cn1)n2C1CCC1 [compound 810, 6-[3-cyano-1-cyclobutyl-6-(difluoromethoxy)-5-fluoro-4-methyl-1H-indol-2-yl]-N-[(2S)-1,1,1-trifluoropropan-2-yl]pyridine-3-sulfonamide]	< 0.5
